Data reported in patent publication US20040219202A1, “Pharmaceutical composition comprising lipids comprising a polar and a nonpolar moiety” (priority 2001, published 2004).
Entries after “also recorded” stand apart in the source; their conditions may differ.

What was measured:
[1] = literature statement; cited from earlier work
COS-7 cells = experiment: Transfection of COS-7 cells with LMDs (liposome:mu:DNA), β-galactosidase reporter assay; format: cell-based; details: for Transfection relative to DOPE (fraction): CDAN:Helper Lipid, summary
Method: (§1) Purity of the lipids was checked by TLC or HPLC. All lipids were stored as stock solutions in anhydrous CH2Cl2, at concentrations of either 5 mg/ml or 10 mg/ml, at −80° C., under Ar. In order to prepare cationic liposomes, lipids were added to a round-bottomed flask, via syringe, under Ar, and further freshly distilled CH2Cl2 was added, if necessary, to give a concentration of around 2.5 mg/ml. Then, 4 mM HEPES pH 7.0 (1 ml) was added, and the biphasic system was swirled to mix. A liposomal suspension was created by removing the organic solvent under reduced pressure at 25° C., followed by sonication for 2-5 min. in a water bath sonicator. Doubly-distilled water was added, if necessary, to return the total volume to 1 ml. All liposomal solutions were prepared at a final concentration of 5 mg/ml. The pH of the liposomal suspension was checked by pH Boy (Camlab Ltd., Over, Cambridgeshire, UK) and adjusted to pH 7.0±0.1 with concentrated aqueous solutions of HCl and NaOH.
(§2) Liposomes were extruded (Extruder, Northern Upids, Inc., Vancouver, BC, Canada) by passing through two 100 nm polycarbonate filters (Isopore™ Membrane Filters, Millipore (UK) Ltd., Watford, Hertfordshire, UK) ten times. For each preparation, the size distribution of liposomes was measured by photon correlation spectroscopy (PCS) (Coulter® N4 Plus Submicron Particle Sizer, Beckman Coulter, High Wycombe, Buckinghamshire, UK). For phospholipid-containing liposomes, phospholipid concentrations were checked by the Stewart assay.^23 In each case, a final lipid concentration of 4.7±0.1 mg/ml was observed. For non-phospholipid containing liposomes, lipid loss was also inevitable on extrusion. For all fast-extruding liposomal suspensions, total lipid concentration was assumed to be 4.7 mg/ml. For slower extrusions, total lipid concentrations were assumed to be 4.3 mg/ml. Very slowly extruding liposomes were extruded three times only and assumed to be 4.7 mg/ml.
(§3) Plasmid DNA containing the β-galactosidase gene (pNGVL1-nt-beta-gal; 7.53 kbp) was stored as frozen aliquots at −80° C., at a concentration of 1.2 mg/ml; μ (mu) peptide (adenoviral core peptide [H2N-Met-Arg-Arg-Ala-His-His-Arg-Arg-Arg-Arg-Ala-Ser-His-Arg-Arg-Met-Arg-Gly-Gly-CO2H]) was synthesised as described previously,^7 and maintained at 4° C. in aliquots of 1 mg/ml. Mu-DNA complexes were made by adding plasmid DNA to mu in 4 mM HEPES at a ratio of 1:0.6 (w/w) with fast vortexing. LMDs were prepared by complexing mu-DNA particles with cationic liposomes (as prepared above) in a ratio of 1:12 (w/w), such that all LMDs for all formulations were substantially cationic. For each preparation, the size distribution of LMDs was measured by PCS.
COS-7 cells were maintained in DMEM/10% FCS/1% penicillin-streptomycin (Gibco™) at 37° C./5% CO2 in a humidified atmosphere. Twenty-four hours prior to transfection, 10 000 cells per well were seeded in 48-well microtitre plates (Coming Costar) in 500 μl medium. Plasmid DNA and Transfast™ controls were prepared as above. 5 μl (0.5 μg DNA) of LMD formulation was added to each well. All experiments were performed in quadruplicate. The plate was swirled for 30 s, and incubated for 1 h at 37° C. Medium was then removed, and 500 μl of fresh medium was added. The cells were incubated at 37° C. for a further 24 h.
Medium was aspirated from the wells and the cell layer was washed with phosphate buffered saline (PBS) (Gibco™). The cells of each well were lysed in 150 μl lysis reagent (prepared according to the supplier's protocol; β-Gal Reporter Gene Assay, Roche Diagnostics GmbH, D-68305 Mannheim, Germany) at room temperature for 30 min. After lysis, […], 50 μl and 20 μl, of each cell suspension were used for the determination of β-galactosidase activity and for the determination of total cellular protein (to normalise results), respectively.
In the β-gal assay, 100 μl of the substrate reagent was added to 50 μl of the cell suspension in a white 96-well microplate (Coming Costar). […]

Panc-1 cells = experiment: Transfection of Panc-1 cells with LMDs (liposome:mu:DNA), β-galactosidase reporter assay; format: cell-based
Method: as §1, §2, §3
Panc-1 cells were maintained in RPMI/10% FCS/1% penicillin-streptomycin (Gibco™, Invitrogen Corporation, Paisley, Scotland, UK) at 37° C./5% CO2 in a humidified atmosphere. Twenty-four hours prior to transfection, 30 000 cells per well were seeded in 48 well microtitre plates (Corning Costar, Merck Ltd., Lutterworth, Leicestershire, UK) in 500 μl medium. As a control, plasmid DNA (0.5 μg in 200 μl medium) was added to a well. As a positive control, 1.5 μl Transfast™ (Promega Corporation, Madison, Wis., USA; prepared according to the supplier's protocol) in 200 μl medium was complexed with plasmid DNA (0.5 μg) and added to a well. 5 μl (0.5 μg DNA) of LMD formulation was added to each well. All experiments were performed in quadruplicate. The plate was swirled for 30 s, and incubated for 1 h at 37° C. Medium was then removed, and 500 μl of fresh medium was added. The cells were incubated at 37° C. for a further 24 h.
Medium was aspirated from the wells and the cell layer was washed with phosphate buffered saline (PBS) (Gibco™). The cells of each well were lysed in 150 μl lysis reagent (prepared according to the supplier's protocol; β-Gal Reporter Gene Assay, Roche Diagnostics GmbH, D-68305 Mannheim, Germany) at room temperature for 30 min. […]

[2] = LMDs of CDAN:Helper Lipid, 1:1 liposomes, DOPC-analogues, FIG. 13
[3] = LMDs of CDAN:Helper Lipid, 1:1 liposomes, FIG. 14
[4] = LMDs of CDAN:Helper Lipid, 1:1 liposomes, DOPE-analogues, FIG. 16
[5] = LMDs of CDAN:Helper Lipid, 2:3 liposomes, FIG. 17
[6] = LMDs of CDAN:Helper Lipid, 3:2 liposomes, FIG. 15
[7] = LMDs of pure DOTAP or DOTAP-analogue liposomes, FIG. 20
[8] = LMDs of DOPE:Cationic Lipid, 1:1 liposomes, FIG. 21

## CCCCCCCCCCCCC#CC#CCCCCCCCCCC(=O)NCCN(CCNC(=N)N)CCNC(=N)N [BGDA, bisguanidinium-diacetylene]
[1]
  In vitro transfection in cationic liposome formulations: highly efficient

## CCCCCCCCCCCCCC#CCCC(=O)OC[C@H](COP(=O)([O-])OCC[N+](C)(C)C)OC(=O)CCC#CCCCCCCCCCCCCC [DO(4-yne)PC]
COS-7 cells; [2]
  Transfection (β-galactosidase activity): a fall in transfection ability
Panc-1 cells; LMDs of CDAN:Helper Lipid, 1:1 (mol/mol) liposomes, DOPC-analogues, FIG. 12
  Transfection (β-galactosidase activity): almost complete loss of any transfection ability

## CCCCCCCCCCCCCC#CCCC(=O)OC[C@H](COP(=O)(O)OCCN)OC(=O)CCC#CCCCCCCCCCCCCC [DO(4-yne)PE]
COS-7 cells; 1:1 liposomes
  Transfection relative to DOPE (fraction): about 1/3
COS-7 cells; [3]
  Fall in transfection on substituting DOPE: about 67%
Panc-1 cells; CDAN:Helper Lipid, 2:3, repeat, liposomes not fresh, LMDs fresh, FIG. 18
  Transfection (β-galactosidase activity): fallen to around that of Transfast
Panc-1 cells; [4]
  Transfection (β-galactosidase activity): transfect well and approximately to the same degree; also recorded: all transfect equally well
Panc-1 cells; [5]
  Transfection (β-galactosidase activity): transfect the best, up to five times better than DOPE
Panc-1 cells; [6]
  Transfection (β-galactosidase activity): transfect very poorly

## CCCCCCCCC#CCCCCCCCC(=O)OCC(C[N+](C)(C)C)OC(=O)CCCCCCCC#CCCCCCCCC.COS(=O)(=O)[O-] (stereo not drawn) [DO(9-yne)TAP]
COS-7 cells; [7]
  Transfection (β-galactosidase activity): transfects around one and-a-half times better than standard DOTAP; also recorded: transfect as well as DOTAP liposomes
Panc-1 cells; LMDs of Cholesterol:Cationic Lipid, 1:1 liposomes, FIG. 22
  Transfection (β-galactosidase activity): transfects as well as DOTAP
Panc-1 cells; [8]
  Transfection (β-galactosidase activity): a small increase in transfection

## CCCC#CCCCCCCCCCCCCC(=O)OC[C@H](COP(=O)(O)OCCN)OC(=O)CCCCCCCCCCCCC#CCCC [DO(14-yne)PE]
COS-7 cells; 1:1 liposomes
  Transfection relative to DOPE (fraction): about 1/3
COS-7 cells; [3]
  Fall in transfection on substituting DOPE: about 67%
Panc-1 cells; [4]
  Transfection (β-galactosidase activity): transfects around half as well as DOPE
Panc-1 cells; [5]
  Transfection (β-galactosidase activity): transfects the least well out of the monoacetylenic analogues
Panc-1 cells; [6]
  Transfection (β-galactosidase activity): transfect very poorly

## CCCC#CCCCCCCCCCCCCC(=O)OCC(C[N+](C)(C)C)OC(=O)CCCCCCCCCCCCC#CCCC.COS(=O)(=O)[O-] (stereo not drawn) [DO(14-yne)TAP]
COS-7 cells; [7]
  Transfection (β-galactosidase activity): almost total loss of transfection activity; also recorded: almost no transfection at all
Panc-1 cells; Cholesterol:Cationic Lipid, 1:1 liposomes, FIG. 22
  Loss of transfection activity on replacing DOTAP: around 30%
Panc-1 cells; LMDs composed entirely of DOTAP or DOTAP-analogue liposomes, FIG. 19
  Transfection (β-galactosidase activity): a six-fold improvement on standard DOTAP; also recorded: transfect up to six times better than DOTAP; also recorded: transfects better than DOTAP
Panc-1 cells; [8]
  Transfection (β-galactosidase activity): a seven-fold increase

## CCCCCCCC/C=C\CCCCCCCC(=O)OC[C@H](COP(=O)([O-])OCC[N+](C)(C)C)OC(=O)CCCCCCC/C=C\CCCCCCCC [DOPC]
[1]
  In vitro transfection in cationic liposome formulations: eliminate or severely attenuate transfection
COS-7 cells; [2]
  Transfection (β-galactosidase activity): transfect equally well

## CCCCCCCC/C=C\CCCCCCCC(=O)OCC(COP(=O)(O)OCCN)OC(=O)CCCCCCC/C=C\CCCCCCCC (stereo not drawn) [DOPE, dioleoylphosphatidylethanolamine]
COS-7 cells; LMDs of CDAN:Helper Lipid, 1:1 liposomes, DOPE-analogues, FIG. 14
  Transfection (β-galactosidase activity): transfection levels are high and approximately the same; also recorded: transfect COS-7 cells very well and to a similar degree
Panc-1 cells; [4]
  Transfection (β-galactosidase activity): transfect well and approximately to the same degree; also recorded: all transfect equally well
Panc-1 cells; [5]
  Transfection (β-galactosidase activity): below that of Transfast
Panc-1 cells; [6]
  Transfection (β-galactosidase activity): transfects around as twice as well as the nearest acetylenic analogue; also recorded: transfects better than all the monoacetylenic analogues
